Reference: US4661516A, “Diaminocyclohexane platinum complexes” (Research Corporation, priority 1984, dated 1987)

Tests used:
[1] = test system: Wild type L1210 leukemic cells; experiment: In vitro cytotoxicity, wild type L1210 leukemic cells (L1210/0); assay type: cell-based; conditions: for ID50: L1210, 72 hours incubation
Procedure: Four ml of cell suspension (10^5 cells/ml) are added to culture tubes and the appropriate concentration (0.01, 0.1, 1 or 10 μg/ml final concentration) of drug added to the culture tubes. After 72 hours of incubation, the cell concentration of control and experimental cultures are determined with the aid of a Coulter Counter® Model ZBf and the percent inhibition calculated. […]

[2] = test system: L1210 leukemia cells (L1210/PDD); experiment: In vitro cytotoxicity / cross-resistance, L1210/PDD (L1210/DDP) cells resistant to cisdiamminedichloroplatinum(II); assay type: cell-based; conditions: for ID50 L1210/DDP: Tables VII and VIII, 5760 min; for ID50 L1210/PDD: 96 hours
Procedure: Four ml of cell suspension were added to culture tubes and the appropriate concentration (0.01, 0.1, 1 or 10 μg/ml final drug concentration) was added. After 96 hours the cell concentration of control and experimental cultures were calculated with the aid of a Coulter Counter® Model ZBf and the percent inhibition calculated.

[3] = test system: L1210 cells; experiment: In vivo anti-tumor activity, L1210, single i.p. injection; parameters: species or system BDF1 mice; conditions: single i.p.; for Long Term Survivors (LTS) / Long Term Survivors: alive 60 days after inoculation
Procedure: About 24 hours after inoculation of the cells, the mice were injected intraperitoneally with varying dosages of complexes of the present invention. […] Long term survival signifies that animals were alive 60 days after inoculation with L1210 cells.

[4] = test system: L1210/0 leukemia cells; experiment: In vivo anti-tumor activity, L1210 (L1210/0), multiple i.p. doses; parameters: species or system BDF1 mice; conditions: for LTS: survivors/treated 50 days after treatment
Procedure: BDF1 mice were inoculated intraperitoneally with 10^6 L1210 cells. About 24 hours after inoculation of the cells, the mice were injected intraperitoneally with varying dosages of complexes of the present invention. Six mice were used for each dosage level in each experiment with an equal number of control mice inoculated with 10^6 L1210 cells and left untreated with a given complex. The results [%T/C=(survival time of treated animals/survival time of control animals)×100] are set forth below. Long term survival signifies that animals were alive 60 days after inoculation with L1210 cells.
The procedure of Example 16 was repeated except that the treated animals were injected with multiple doses of the complex as indicated below:
The anti-tumor activity of compound number 3 was evaluated against cells sensitive to (L1210/0) and resistant to (L1210/PDD) the standard platinum complex cis-diamminedichloroplatinum(II).
The following complexes were tested in vivo oncolytic activity following 3 i.p. injections (days 1, 5, 9) according to the protocol described in Examples 16 and 17.
BDF1 mice were innoculated intraperitoreally with 10^6 L1210 leukemia cells and treatment was begun on the next day (day 1). Two treatment schedules, i.e. single i.p. injection of the drug and i.p. injections on days 1, 5 and 9 according to the protocol described in Examples 16 and 17 were used.

[5] = test system: Male albino mice; experiment: Acute toxicity, single intraperitoneal injection (Example 19); assay type: in vivo; conditions: single i.p.; for Calculated LD10 / Calculated LD50 / Calculated LD90: 14 days
Procedure: Fourteen days after treatment all surviving mice were sacrified and the LD10, LD50 and LD90 were calculated.

[6] = 6.25 mg/kg i.p., days 1, 5, 9, 30 day observation period
[7] = 12.5 mg/kg i.p., days 1, 5, 9, 30 day observation period
[8] = 25 mg/kg i.p., days 1, 5, 9, 30 day observation period

| Molecule | ID50 [1] [µg/mL] | ID50 L1210/DDP [2] [µg/mL] | % T/C ([3]; 12.5 mg/kg) [%] | % T/C ([3]; 25 mg/kg) [%] | % T/C ([3]; 50 mg/kg) | other results |
| --- | --- | --- | --- | --- | --- | --- |
| NC1CCCCC1N.O=C([O-])C1CCCN1.O=C([O-])C1CCCN1.[Pt+2] [Compound 16, cis-bis-L-prolinato(DACH)Pt(II)] | 4.0 | 2.5 | 144 | 165 | 165% | % T/C ([3]; 100 mg/kg): 162%; animals died of apparent drug toxicity ([3]; 100 mg/kg): 1 animals |
| isocitratomonoethylester(DACH)Pt(II).1.5H2 O [Compound 21] | 2.0 | 1.9 |  |  |  |  |
| NC1CCCCC1N.O.O.O=C([O-])CNCC(=O)[O-].[Pt+2] [Compound 35, Iminodiacetato(trans-R,R--DACH)Pt(II).2H2 O] | 3.0 |  |  |  |  | Long Term Survivors ([4]; Tables X and XI, days 1, 5 and 9, at maximal effective dose, alive 60 days after tumor inoculation): 2/6; Maximal Effective Dose ([4]; Tables X and XI, i.p. on days 1, 5 and 9): 25 mg/kg; % T/C ([4]; Tables X and XI, i.p. on days 1, 5 and 9, at maximal effective dose): 437% |
| NC1CCCCC1N.O.O=C([O-])C1CC1.O=C([O-])C1CC1.[Pt+2] (stereo not drawn) [Compound 29, Cis-bis-cyclopropanecarboxylato(DACH)Pt(II).1H2 O] | 0.3 |  | 252 | 176 | 199% | LTS ([3]; 12.5 mg/kg): 1/6; Long Term Survivors (LTS) ([3]; 50 mg/kg): 1/6 |
| NC1CCCCC1N.O=C1O[C@H]([C@@H](O)C(=O)[O-])[C@H](O)[C@H]1O.O=C1O[C@H]([C@@H](O)C(=O)[O-])[C@H](O)[C@H]1O.[Pt+2] [Compound 9, cis-bis-D-saccharato-1,4-lactone(DACH)Pt(II)] | 3.0 |  | 127 | 138 | 156% | DEATHS/TREATED ([5]; 85 mg/kg): 0/6; DEATHS/TREATED ([5]; 100 mg/kg): 0/6; DEATHS/TREATED ([5]; 125 mg/kg): 3/6; DEATHS/TREATED ([5]; 158 mg/kg): 5/6; DEATHS/TREATED ([5]; 200 mg/kg): 4/6; Calculated LD10 [5]: 100 mg/kg; Calculated LD50 [5]: 140 mg/kg; Calculated LD90 [5]: 185 mg/kg; ID50 L1210/PDD [2]: 0.6 µg/mL; % T/C ([3]; 100 mg/kg): Toxic |
| Cis-bis-cyclopentenecarboxylato(DACH)Pt(II).2H2 O [Compound 26] | 1.3 |  | 185 | 158 | 157% | % T/C [4, 6]: 189%; % T/C [4, 7]: 356%; LTS ([4]; 12.5 mg/kg, days 1, 5, 9): 1/6; % T/C [4, 8]: 300%; LTS ([4]; 25 mg/kg, days 1, 5, 9): 1/6 |
| NC1CCCCC1N.NCCOS(=O)(=O)[O-].NCCOS(=O)(=O)[O-].[Pt+2] (stereo not drawn) [Compound 14, cis-bis-2-aminoethylsulfato(DACH)Pt(II)] | 4.3 | 3.7 |  |  |  |  |
| NC1CCCCC1N.NCC(=O)[O-].NCC(=O)[O-].O.[Pt+2] (stereo not drawn) [Compound 32, Cis-bis-glycinato(DACH)Pt(II).1H2 O] | 2.5 |  | 128 | 131 | 158% |  |
| NC1CCCCC1N.O.O.O=S(=O)([O-])CCO.O=S(=O)([O-])CCO.[Pt+2] (stereo not drawn) [Compound 13, cis-bis-isethionato(DACH)Pt(II).2H2 O] | 0.43 |  |  |  | Toxic | % T/C ([3]; 5 mg/kg): 153%; % T/C ([3]; 10 mg/kg): 180%; % T/C ([3]; 20 mg/kg): 140%; animals died of apparent drug toxicity ([3]; 20 mg/kg): 2/6; Long Term Survivors ([3]; 20 mg/kg): 1/6 |
| NC1CCCCC1N.O.O=C1CC(C(=O)[O-])C(C(=O)[O-])O1.[Pt+2] (racemic) [Compound 12, DL-isocitratolactone(DACH)Pt(II).1H2 O] | 1.0 |  |  | 133 | 145% | % T/C ([4]; 25 mg/kg, days 1,5,9): 219%; % T/C ([4]; 50 mg/kg, days 1,5,9): 165%; % T/C ([3]; 100 mg/kg): Toxic |
| NC(=O)CN(CC(=O)[O-])CC(=O)[O-].NC1CCCCC1N.[Pt+2] [Compound 42, N--(2-Acetamido)-iminodiacetato(DACH)Pt(II).1/2H2 O] | 0.7 | 1.8 |  |  |  | ID50 L1210/0 ([1]; L1210/0, protocol of Example 14, Tables VII and VIII, 4320 min): 3.0 µg/mL |
| NC1CCCCC1N.O=C([O-])CN(CCO)CCO.O=C([O-])CN(CCO)CCO.[Pt+2] [Compound 34, Cis-bis-bicinato(DACH)Pt(II)] | 1.2 |  | 165 | 151 | 160% |  |
| NC1CCCCC1N.O.O=C([O-])C1CCCC1.O=C([O-])C1CCCC1.[Pt+2] (stereo not drawn) [Compound 25, Cis-bis-cyclopentanecarboxylato(DACH)Pt(II).1H2 O] | 0.3 |  | 161 | 178 | 163% | % T/C [4, 6]: 202%; % T/C [4, 7]: 246%; % T/C [4, 8]: 253% |
| N[C@H]1CCCC[C@@H]1N.O=C1O[C@H]([C@@H](O)CO)C([O-])=C1O.O=C1O[C@H]([C@@H](O)CO)C([O-])=C1O.[Pt+2] [Compound 5, cis-bis-ascorbato(trans-S,S--DACH)Pt(II).2H2 O] | 4.4 |  |  | 136 | Toxic | DEATHS/TREATED ([5]; 60 mg/kg): 0/6; DEATHS/TREATED ([5]; 80 mg/kg): 2/6; DEATHS/TREATED ([5]; 100 mg/kg): 5/6; DEATHS/TREATED ([5]; 125 mg/kg): 6/6; DEATHS/TREATED ([5]; 160 mg/kg): 5/6; Calculated LD10 [5]: 70 mg/kg; Calculated LD50 [5]: 90 mg/kg; Calculated LD90 [5]: 125 mg/kg; ID50 L1210/PDD [2]: 2.3 µg/mL |
| N[C@@H]1CCCC[C@H]1N.O=C1O[C@H]([C@@H](O)CO)C([O-])=C1O.O=C1O[C@H]([C@@H](O)CO)C([O-])=C1O.[Pt+2] [Compound 4, cis-bis-ascorbato(trans-R,R--DACH)Pt(II).3H2 O] | 1.9 |  |  | 128 | 184% | % T/C ([4]; 25 mg/kg, days 1,5,9): 218%; % T/C ([4]; 50 mg/kg, days 1,5,9): 144%; ID50 L1210/PDD [2]: 0.4 µg/mL; Long Term Survivors (LTS) ([3]; 50 mg/kg): 1/6 |
| furanedicarboxylato(DACH)Pt(II) [Compound 19] | 1.0 | 0.9 | 136 | 136 | Toxic | % T/C ([3]; 6.25 mg/kg): 143% |
| CCS(=O)(=O)[O-].CCS(=O)(=O)[O-].NC1CCCCC1N.O.[Pt+2] (stereo not drawn) [Compound 31, Cis-bis-ethanesulfonato(DACH)Pt(II).H2 O] | 3.1 |  | 109 | 134 | 153% | % T/C ([4]; 50 mg/kg i.p., days 1, 5, 9, 30 day observation period): 198%; LTS ([4]; 50 mg/kg, days 1, 5, 9): 1/6; % T/C ([4]; 100 mg/kg i.p., days 1, 5, 9, 30 day observation period): 295%; LTS ([4]; 100 mg/kg, days 1, 5, 9): 2/6 |
| NC1CCCCC1N.O.O=C([O-])C1CCCCN1.O=C([O-])C1CCCCN1.[Pt+2] (racemic) [Compound 18, cis-bis-DL-pipecolinato(DACH)Pt(II).1H2 O] | 0.44 |  | 145 | 180 | Toxic |  |
| NC1CCCCC1N.O=C1OC(C(O)CO)C([O-])=C1O.O=C1OC(C(O)CO)C([O-])=C1O.[Pt+2] (mixture of isomers) [Compound 7, cis-bis-isoascorbato(DACH)Pt(II).3H2 O] |  | 3.8 |  | 132 | 136% | % T/C ([4]; 12.5 mg/kg, days 1,5,9): 151%; % T/C ([4]; 25 mg/kg, days 1,5,9): 179%; % T/C ([4]; 50 mg/kg, days 1,5,9): 212%; ID50 ([1]; 4320 min): 4.1 µg/mL; % T/C ([3]; 100 mg/kg): 196%; animals died of apparent drug toxicity ([3]; 100 mg/kg): 2/6; Long Term Survivors ([3]; 100 mg/kg): 1/6 |
